Assays:
Type in all cases: cell-based
PPARγ = molecular target: T1, PPARγ (Homo sapiens, UniProt P37231); experiment: PPARγ activation assay (PPRE-Acox-Rluc reporter in CV-1 cells); conditions: 10 μM test analogue, 20 h
T1 construct: expressed in transfected cells; host or cells: CV-1 cells, transient (LipofectAMINE 2000)
T1 sequence (P37231 1-505): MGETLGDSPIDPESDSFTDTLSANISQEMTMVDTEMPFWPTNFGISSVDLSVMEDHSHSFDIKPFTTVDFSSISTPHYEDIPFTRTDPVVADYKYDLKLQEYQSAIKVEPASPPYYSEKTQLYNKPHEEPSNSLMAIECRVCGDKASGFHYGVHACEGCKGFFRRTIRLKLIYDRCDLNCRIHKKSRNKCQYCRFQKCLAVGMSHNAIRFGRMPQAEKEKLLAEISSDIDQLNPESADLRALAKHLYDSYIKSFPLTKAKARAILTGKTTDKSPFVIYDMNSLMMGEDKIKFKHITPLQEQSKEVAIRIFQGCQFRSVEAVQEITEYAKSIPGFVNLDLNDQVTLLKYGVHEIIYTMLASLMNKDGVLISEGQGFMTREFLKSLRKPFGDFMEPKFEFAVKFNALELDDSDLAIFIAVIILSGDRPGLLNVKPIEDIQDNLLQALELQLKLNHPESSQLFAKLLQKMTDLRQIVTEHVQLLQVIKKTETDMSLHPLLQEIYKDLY
Procedure: PPARγ activation assay. PPARγ activation was performed using CV-1 cells transfected with an acyl-coenzyme A oxidase-luciferase (PPRE-Acox-Rluc) reporter gene construct as previously reported. Briefly, CV-1 cells were plated in 96-well plates at a density of 1×10^4 cells per well in Dulbecco's modified Eagle's medium supplemented with 10% fetal bovine serum. The next day, the cells were transiently transfected with 125 ng of pGL3-PPRE-Acox-Rluc, 62.5 ng of pcDNA3.1 PPARγ, and 12.5 ng of pSV-β-galactosidase (Promega) using LipofectAMINE 2000 (Invitrogen). Twenty-four hours after transfection, cells were treated with OptiMEM (Invitrogen) containing 10 μM Rosiglitazone or 10 μM of the test analogue dissolved in DMSO for 20 h. Luciferase and β-galactosidase activities were measured with Steady-Glo® Luciferase Assay System (Promega) and the Galacto-Light Plus™ system (Applied Biosystems), respectively. Samples were run in quadruplicate and the mean ±standard errors were calculated. Data are representative of at least two independent transfections.

MDA-MB-231 cells [1] = experiment: Matrigel transwell invasion assay; conditions: Homo sapiens, 24 h, read-out: inhibition of MDA-MB-231 invasion through Matrigel
Procedure: Inhibition of invasion. The invasive behavior of cells was determined in vitro by using 24-well transwell inserts with an 8 μm pore size PET membrane which were coated with Matrigel basement membrane matrix. A suspension of cells (100 μL of 5×10^4) in serum-free medium with or without 10 μM syn-BrP-LPA la or anti-BrP-LPA 1b was added to triplicate inserts, and 600 μL medium supplemented with serum was used as a chemoattractant in the lower chamber. […] Ten fields of cells were counted for each well, and the mean number of cells per field was calculated. Each experiment was performed in triplicate and repeated at least twice.

MDA-MB-231 cells [2] = experiment: Scratch wound healing migration assay; conditions: for MDA-MB-231 cell migration in words: 10 and 40 μM, 24 h
Procedure: Inhibition of migration. MDA-MB-231 cells were plated in triplicate into six-well plates at a concentration of 3×10^5 cells per well. Approximately 48 hours later, the confluent cells were carefully scratched using sterile pipette tips. Nonadherent cells and cellular debris were removed by washing with PBS. Fresh medium with or without various concentrations of BrP-LPA 1, syn-BrP-LPA 1a, or anti-BrP-LPA 1b (1-100 μM) were added to the wounded monolayers. Cells were observed under the microscope and digitally photographed at different times. Inhibition of migration was assessed when the wound in the control was closed and quantified by using ImageJ.

Row | SMILES | PPARγ (PPRE luciferase reporter gene assay) (PPARγ) | inhibition at 10 µM (MDA-MB-231 cells [1]) [%] | MDA-MB-231 cell migration in words (MDA-MB-231 cells [2]) | decrease of MDA-MB-231 cell migration (MDA-MB-231 cells [2]; 40 μM, compared to control, scratch wound) [%]
1 | CCCCCCCCC=CCCCCCCCC(=O)OCC(O)CC(O)P(=O)([O-])O.[Na+] (mixture of isomers) [Compound 22a, reference compound] | NE (NE = no effect was shown at the highest concentration (30 μM) tested.) | – | – | –
2 | CCCCCCCCCCCCCCCC(=O)OCC(O)CC(O)P(=O)([O-])O.[Na+] (mixture of isomers) [Compound 22b, reference compound] | NE (NE = no effect was shown at the highest concentration (30 μM) tested.) | – | – | –
3 | CCCCCCCCCCCCCCCC(=O)OC[C@@H](O)C[C@@H](Br)P(=O)(O)O [Compound 1a] | – | ~52 | inhibited the MDA-MB-231 cell migration | –
4 | CCCCCCCCCCCCCCCC(=O)OC[C@@H](O)C[C@H](Br)P(=O)(O)O [Compound 1b] | – | ~52 | inhibited the MDA-MB-231 cell migration | 57
5 | CCCCCCCC/C=C\CCCCCCCC(=O)OCC(O)CCP(=O)(O)O (stereo not shown) [Compound 20a, reference compound] | NE (NE = no effect was shown at the highest concentration (30 μM) tested.) | – | – | –
6 | CCCCCCCCCCCCCCCC(=O)OC[C@@H](O)CCP(=O)([O-])O.[Na+] [Compound 20b, reference compound] | NE (NE = no effect was shown at the highest concentration (30 μM) tested.) | – | – | –
7 | CCCCCCCCCCCCCCCC(=O)OCC(O)COP(=O)(O)O (stereo not shown) [LPA (16:0), reference compound] | NE (NE = no effect was shown at the highest concentration (30 μM) tested.) | – | – | –

From US8722649B2, “Alpha-chloro and alpha-bromo phosphonate analogs of lysophosphatidic acid and methods of making and using thereof” (University of Utah Research Foundation, priority 2007, dated 2014)
